Measurements taken from patent publication US20030154517A1, “Efficiency agrobacterium-mediated wheat transformation method” (priority 2001, published 2003).
Several values for one entry are separate records, joined by “and”; a condition that tells them apart may be missing. Equal entries are not always repeated. Where two headings read alike, the source gives them in different places.

Tests used:
[1] = tested on: immature embryos of wheat; experiment: Agrobacterium-mediated wheat transformation, nptII (G418/kanamycin) selection (transformation efficiency); format: cell-based, Triticum aestivum L
Text: Immature embryos of wheat (Triticum aestivum L) cv Bobwhite were isolated from the immature caryopsis (wheat spikelets) 12-15 days after pollination, and cultured on CM4C (Table 2) for 1-8 days, most typically for 4-6. The embryos without embryogenic callus were selected for Agrobacterium inoculation.
A disarmed Agrobacterium strain C58 (ABI) harboring a binary vector was used for all the experiments. […] The Agrobacterium cells were resuspended in the inoculation medium and the density was adjusted to an OD660 of 1. […] An equal amount of the Agrobacterium cell suspension was added such that the final concentration of Agrobacterium cells was an OD660 of 0.5. In most experiments, pluronic F68 was added to the inoculation mixture at a final concentration of 0.01%. The ratio between the Agrobacterium and immature embryos (IEs) was about 10 mL: 20-200 IEs. The conditions for inoculation were temperatures from about 23° C.-26° C. with a duration from about 5-60 minutes.
After the inoculation period, the remaining Agrobacterium cells were removed from the explants by using the in-house vacuum equipment. A piece of sterile Whatman No. 1 filter paper (to fit the size of the petri plate) was placed in each of 60×15 or 60×20 mm petri dishes without additional liquid or agar-supplemented media. Two hundred microliters of sterile water was placed in the middle of the filter paper. After 2-3 minutes, the inoculated immature embryos were placed in the plates. Usually, 20-50 explants are grouped as one stack (about 1 cm in size and 60-80 mg/stack), with 4-5 stacks on each plate. The plates were immediately parafilmed and then co-cultivated in the dark at 24° C.-26° C. for 2-3 days.
For nptII selection, immature embryos were isolated, precultured, inoculated, and co-cultured as previously described. After the 3-day co-culture, embryos were transferred to delay culture (solid CM4C2D) media (CM4C media as in Table 2 with 2 mg/L 2,4-D) with 500 mg/L carbenicillin for 7 days in the dark at 25° C. Selection was done in liquid CM4C media (as in Table 2 without the Phytagel) with 100 mg/L carbenicillin and 20 mg/L G418 on a support for 7 days in the dark followed by 7 days in the light (16 hr photoperiod), at 25° C. The calli were then transferred to liquid MMS0.2C media (as in Table 2 without the gelling agent) with 100 mg/L carbenicillin and 25 mg/L G418 on a support for 2 weeks at 25° C. with a 16 hr photoperiod. After 2 weeks, the calli were transferred to liquid MMSOC media (as in Table 2 without the gelling agent) with 100 mg/L carbenicillin and 25 mg/L G418 on a support for 2 to 4 weeks at 25° C. with a 16 hr photoperiod. Plantlets were transferred to solid MMSOC media with 100 mg/L carbenicillin and 25 mg/L G418 in sundae cups for 1 to 4 weeks at 25° C. with a 16 hr photoperiod.

[2] = tested on: wheat callus cultures; details: for 1 shoot/callus / 2 shoots/callus / 3 shoots/callus / 4 shoots/callus / Regenerable callus, # / Regenerable callus, % / Shoots, #: no glyphosate; for Shoots, #: two experiments
Procedure: Five treatments were done: 1) control (0.1 μM Cu as in MS medium) without additional copper; 2) 2 μM copper, applied at delay and selection for 2 weeks total; 3) 2 μM Cu at 1st regeneration for 2 weeks; 4) 2 μM Cu at 2nd regeneration for 2 or more weeks; and 5) 2 μM Cu constantly present at all of these stages.

[3] = tested on: immature embryos of wheat (Triticum aestivum L) cv Bobwhite; experiment: Agrobacterium-mediated wheat transformation, glyphosate selection (transformation efficiency); format: cell-based; details: for Over all % TE / Total Ind. Events: six experiments; for Transgenic #: Expt. 309 and Expt. 314
[4] = 2 μM Cu at 2nd Reg. (MMS0C), 2 w.
[5] = Table 16: 250 μM CuSO4 in MMS0C
[6] = Table 16: 500 μM CuSO4 in MMS0C
[7] = Table 16: 750 μM CuSO4 in MMS0C
[8] = Table 16: 1000 μM CuSO4 in MMS0C
[9] = Table 16: 1500 μM CuSO4 in MMS0C
[10] = Table 16: 2000 μM CuSO4 in MMS0C
[11] = Table 16: 3000 μM CuSO4 in MMS0C

Compound: O=S(=O)([O-])[O-].[Cu+2] [CuSO4, copper sulfate]
- Independent transgenic events/explants [1]: 37/220 and 63/228 and 48/211 and 46/275 and 53/225
- % TE ([1]; 2 μM copper sulfate in MMSOC, nptII liquid system, per experiment and Totals, listed as Copper sulfate): 3.72% and 2.16% and 0.57% and 9.43% and 9.14% and 4.51% and 1.56%
- % TE ([1]; 2 μM copper sulfate in MMSOC, nptII liquid system, per experiment and Totals, listed as copper): 4.5%
- % TE ([1]; 20 μM copper sulfate in MMSOC, nptII liquid system, per experiment and Totals): 7.2%
- % TE ([1]; Table 19: compound at 2 μM in second regeneration stage (MMSOC media)): 16.8%
- % TE ([1]; Table 19: compound at 20 μM in second regeneration stage (MMSOC media)): 27.6% and 30.6% and 22.7% and 16.7% and 23.6%
- % TE ([1]; Table 19: compound at 20 μM in second regeneration stage (MMSOC media), listed as copper sulfate): 27.6% and 16.7% and 22.7%
- 1 shoot/callus ([2]; 2 μM Cu at 1st Reg., 2 w.): 11.8
- 2 shoots/callus ([2]; 2 μM Cu at 1st Reg., 2 w.): 9.3
- 3 shoots/callus ([2]; 2 μM Cu at 1st Reg., 2 w.): 3.3
- 4 shoots/callus ([2]; 2 μM Cu at 1st Reg., 2 w.): 1.3
- Regenerable callus, # ([2]; 2 μM Cu at 1st Reg., 2 w.): 30.5
- Regenerable callus, % ([2]; 2 μM Cu at 1st Reg., 2 w.): 61%
- Shoots, # ([2]; 2 μM Cu at 1st Reg., 2 w.): 44
- effect on regeneration ([2]; 2 μM Cu at 1st regeneration stage): very little or no effect
- Regenerable callus, # [2, 4]: 40
- Regenerable callus, % [2, 4]: 80%
- Shoots, # [2, 4]: 80.5
- 2 shoots/callus ([2]; 2 μM Cu at 2nd Reg., 2 w.): 12.5
- 3 shoots/callus ([2]; 2 μM Cu at 2nd Reg., 2 w.): 9.8
- 4 shoots/callus ([2]; 2 μM Cu at 2nd Reg., 2 w.): 4.3
- effect on regeneration ([2]; 2 μM Cu at 2nd regeneration stage): most significant increase in regeneration
- 1 shoot/callus ([2]; 2 μM Cu at Delay/Sel., 2 w.): 14.3
- 2 shoots/callus ([2]; 2 μM Cu at Delay/Sel., 2 w.): 8.5
- 3 shoots/callus ([2]; 2 μM Cu at Delay/Sel., 2 w.): 7.8
- 4 shoots/callus ([2]; 2 μM Cu at Delay/Sel., 2 w.): 0.5
- Regenerable callus, # ([2]; 2 μM Cu at Delay/Sel., 2 w.): 35.6
- Regenerable callus, % ([2]; 2 μM Cu at Delay/Sel., 2 w.): 71%
- Shoots, # ([2]; 2 μM Cu at Delay/Sel., 2 w.): 57.5
- 1 shoot/callus ([2]; 2 μM Cu at all stages, 6 w.): 9
- 2 shoots/callus ([2]; 2 μM Cu at all stages, 6 w.): 11.5
- 3 shoots/callus ([2]; 2 μM Cu at all stages, 6 w.): 2.5
- 4 shoots/callus ([2]; 2 μM Cu at all stages, 6 w.): 0.5
- Regenerable callus, # ([2]; 2 μM Cu at all stages, 6 w.): 30.5
- Regenerable callus, % ([2]; 2 μM Cu at all stages, 6 w.): 61%
- Shoots, # ([2]; 2 μM Cu at all stages, 6 w.): 37
- effect on regeneration ([2]; 2 μM Cu at delay and selection stage): Some improvement
- effect on regeneration ([2]; 2 μM Cu present at all stages): No improvement
- improvement in TE (×) ([3]; 1.0 μM copper sulfate in MMS0C, experiment 309): 2.5 ×
- improvement in TE (×) ([3]; 1.0 μM copper sulfate in MMS0C, experiment 314): ~4 ×
- improvement in TE (×) ([3]; 2.0 μM copper sulfate in MMS0C, experiment 309): 3.5 ×
- improvement in TE (×) ([3]; 2.0 μM copper sulfate in MMS0C, experiment 314): ~10 ×
- TE % ([3]; CuSO4 2 μM, initial 14 days (2 weeks) of last regeneration stage (MMS0C), per experiment and Total/average of twelve, listed as Cu): 16.6%
- % TE ([3]; Table 14: 2 μM Cu in MMS0C, per experiment and Total, listed as Cu): 11.4% and 15.1% and 9.4%
- % TE ([3]; Table 14: 20 μM Cu in MMS0C, per experiment and Total, listed as Cu): 17.4% and 20.3% and 15.9%
- Over all % TE ([3]; Table 15: 20 μM CuSO4 in MMS0C): 17.6%
- Total Ind. Events ([3]; Table 15: 20 μM CuSO4 in MMS0C): 103
- % TE ([3]; Table 15: 40 μM CuSO4 in MMS0C, experiments 292, 293, 295, 296, 297, 301): 14.0% and 13.9% and 22.6% and 21.8% and 20.7% and 19.6%
- Over all % TE ([3]; Table 15: 40 μM CuSO4 in MMS0C): 18.6%
- Total Ind. Events ([3]; Table 15: 40 μM CuSO4 in MMS0C): 109
- Over all % TE ([3]; Table 15: 80 μM CuSO4 in MMS0C): 16.6%
- Total Ind. Events ([3]; Table 15: 80 μM CuSO4 in MMS0C): 98
- % TE ([3]; Table 16: 40 μM CuSO4 in MMS0C): 17.5%
- Transgenics ([3]; Table 16: 40 μM CuSO4 in MMS0C): 14
- % TE [3, 5]: 20%
- Transgenics [3, 5]: 16
- % TE [3, 6]: 24% and 23.75%
- Transgenics [3, 6]: 19
- % TE [3, 7]: 15.0%
- Transgenics [3, 7]: 12
- % TE [3, 8]: 10.0%
- Transgenics [3, 8]: 8
- % TE [3, 9]: 13.8%
- Transgenics [3, 9]: 11
- % TE [3, 10]: 11.1%
- Transgenics [3, 10]: 4
- % TE [3, 11]: 5.6%
- Transgenics [3, 11]: 2
- % TE ([3]; Table 17: 0.25 μM CuSO4 in MMS0C, both experiments): 4.8%
- Transgenic # ([3]; Table 17: 0.5 μM CuSO4 in MMS0C): 4 and 5
- % TE ([3]; Table 17: 0.5 μM CuSO4 in MMS0C, both experiments): 4.3%
- Transgenic # ([3]; Table 17: 1.0 μM CuSO4 in MMS0C): 10 and 11
- % TE ([3]; Table 17: 1.0 μM CuSO4 in MMS0C, both experiments): 10.1%
- % TE ([3]; Table 17: 2.0 μM CuSO4 in MMS0C, both experiments): 20.7%
- TE, average ([3]; copper sulfate from 20 to 80 μM inclusive in MMS0C, Table 15): 17.6%
